{"source": "paper PMC4449006", "about": "“Targeting KRAS Oncogene in Colon Cancer Cells with 7-Carboxylate Indolo[3,2-b]quinoline Tri-Alkylamine Derivatives” (PLoS ONE, 2015)", "system": "HCT116 cells", "test": "Hoechst staining and Guava Nexin assay, HCT116", "type": "cell-based, human", "details": "HCT116, 72 h, IC50 concentrations", "procedure": "To further validate the effect of the IQ3A compounds on the induction of apoptosis in HCT116 cells, apoptosis was ascertained by evaluating changes in nuclear morphology by Hoechst staining, and also by the Nexin assay, following 72 h of incubation with IQ3A compounds at the IC50 concentrations. […] The p53 protein plays a central and pivotal role in human cancers, having a potent tumor suppressive activity via pleiotropic mechanisms. Therefore, the steady-state levels of p53 protein were evaluated by immunoblotting, following 72 h of incubation with IQ3A compounds at the IC50 concentrations, to ascertain their involvement on the mechanism of apoptosis elicited by IQ3A. […] In SW620 cells, no significant increase in p53 steady-state expression was detected, possibly due to the mutant status of p53 (Fig 5A, middle panel). […]\nFig 4 Exposure to IQ3A compounds increases apoptosis in HCT116 cells. […] Results are expressed as the mean percentage (%) of early (LR quadrant) and late (UR quadrant) apoptotic cells.\nThe Nexin Assay distinguishes viable, early and late apoptotic cells based on the externalization of phosphatidylserine to the cell surface, where Annexin V can readily bind them. […]"}
{"smiles": "CCN(CC)CCOC(=O)c1ccc2c(c1)c1nc3ccccc3c(OCCN(CC)CC)c1n2CCN(CC)CC", "note": "[1a]", "values": [{"measurement": "induction of apoptosis", "value": "marked increase in apoptosis compared to vehicle"}]}
